As a reminder, the pKi is the Ki on a negative log10 scale, so that one unit is a factor of ten.

pKi: −log10 of the molar value. Like-named read-outs stand apart in the source and are kept apart here. Bounds are passed on as bounds.

These results are taken from patent US7491827B2, “Aryl sulfonamides useful as inhibitors of chemokine receptor activity” (Millennium Pharmaceuticals, Inc., priority 2003, dated 2009).

This assay deals with T1, cloned human CCR8 receptor stably expressed in L1.2 cells (Homo sapiens, UniProt P51685).
T1 construct: expressed in transfected cells
Description: whole cell binding screen: inhibition of biotinylated human I309 binding to CCR8 (FMAT 8100 HTS). Conditions: biotinylated human I-309, 10 point concentration response starting at 10 μM. The method in brief: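 Ten-point dilutions, top 10 μM final, were tested for displacing biotin-I309 from hCCR8-transfected L1.2 cells in HEPES-buffered HBSS with BSA and sodium azide, mixing 0.5 h before FMAT 8100 detection. Signals converted to percent inhibition against untreated wells and a 100 nM excess unlabeled I309 control.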

Where [1] appears, read: L1.2/hCCR8 cells, read-out: Ki of compounds to inhibit I-309 binding to CCR8.
[2] abbreviates: Ki of compounds to inhibit I-309 binding to CCR8, L1.2/hCCR8 cells.

T1 sequence (P51685 whole entry): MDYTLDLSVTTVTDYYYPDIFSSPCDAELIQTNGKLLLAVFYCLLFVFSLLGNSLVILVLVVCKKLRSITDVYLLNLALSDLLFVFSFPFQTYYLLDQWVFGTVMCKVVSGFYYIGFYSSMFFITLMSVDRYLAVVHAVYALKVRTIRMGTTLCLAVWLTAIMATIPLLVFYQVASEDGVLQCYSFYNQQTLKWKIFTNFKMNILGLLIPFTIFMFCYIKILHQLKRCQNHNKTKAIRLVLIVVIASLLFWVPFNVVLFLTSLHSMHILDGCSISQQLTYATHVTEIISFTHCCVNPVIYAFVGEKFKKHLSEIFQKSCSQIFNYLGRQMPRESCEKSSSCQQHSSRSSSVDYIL

`CCOC(=O)N1CCC(NS(=O)(=O)c2ccc(CNCC3CCCCC3)c3ccccc23)CC1` [Compound G-27, 4-{4-[(Cyclohexylmethyl-amino)-methyl]-naphthalene-1-sulfonylamino}-piperidine-1-carboxylic acid ethyl ester]: the pKi under setting [1] is > 6.30.

Consider `COc1ccc(NS(=O)(=O)c2cc3c(c(NC(=O)c4ccccc4)c2)CCCC3)cc1` [Compound H-55, N-[3-(4-Methoxy-phenylsulfamoyl)-5,6,7,8-tetrahydro-naphthalen-1-yl]-benzamide], for which the negative-log Ki (pKi) under setting [1] was > 4.52.

Turning to `CC(C)(C)OC(=O)N1CCC(NS(=O)(=O)c2ccc(NC(=O)C3CCCC3)c3ccccc23)CC1` [Compound B-16, 4-[4-(Cyclopentanecarbonyl-amino)-naphthalene-1-sulfonylamino]-piperidine-1-carboxylic acid tert-butyl ester], the negative-log Ki (pKi) under setting [1] is > 6.00.

For `CCCC(=O)N1CCC(NS(=O)(=O)c2ccc(NC(=O)c3ccccc3C)c3ccccc23)C(C)(C)C1` (racemic) [Compound C-23, (±)-N-[4-(1-Butyryl-3,3-dimethyl-piperidin-4-ylsulfamoyl)-naphthalen-1-yl]-2-methyl-benzamide], the negative-log Ki (pKi) under setting [1] was > 4.52.

Take `CC[C@H]1CN(C(=O)[C@@H]2CCCN2)CC[C@@H]1NS(=O)(=O)c1ccc(NC(=O)c2ccccc2C)c2ccccc12` [Compound J-31, (3S, 4S)-N-{4-[3-Ethyl-1-(pyrrolidine-2-(S)-carbonyl)-piperidin-4-ylsulfamoyl]-naphthalen-1-yl}-2-methyl-benzamide]: under setting [1], the pKi is > 6.30.

Take `Cc1ccccc1C(=O)Nc1ccc(S(=O)(=O)NC2CCCC2)c2c1CCCC2` [Compound E-26, N-(4-Cyclopentylsulfamoyl-5,6,7,8-tetrahydro-naphthalen-1-yl)-2-methyl-benzamide]: under setting [1], the pKi is > 6.00.

For the molecule `Cc1ccccc1C(=O)Nc1ccc(S(=O)(=O)NC2CCN(C(=O)[C@@H]3CCCN3)CC2)c2ccccc12` [Compound C-125, (S)-2-Methyl-N-{4-[1-(pyrrolidine-2-carbonyl)-piperidin-4-ylsulfamoyl]-naphthalen-1-yl}-benzamide], the negative-log Ki (pKi) under setting [2] is > 6.30.

Take `CCCC(=O)N1CCC(NS(=O)(=O)c2ccc(C(=O)Nc3cccc(C)c3C)c3ccccc23)CC1` [Compound F-19, 4-(1-Butyryl-piperidin-4-ylsulfamoyl)-naphthalene-1-carboxylic acid (2,3-dimethyl-phenyl)-amide]: the pKi under setting [1] was > 6.30.

For the molecule `Cc1ccccc1C(=O)Nc1ccc(S(=O)(=O)NC2CCOCC2)c2c1CCCC2` [Compound E-23, 2-Methyl-N-[4-(tetrahydro-pyran-4-ylsulfamoyl)-5,6,7,8-tetrahydro-naphthalen-1-yl]-benzamide], the pKi under setting [1] is > 6.30.

Consider `CCNC(=O)N1CCC(NS(=O)(=O)c2ccc(NC(=O)c3ccccc3)c3ccccc23)CC1` [Compound C-7, 4-(4-Benzoylamino-naphthalene-1-sulfonylamino)-piperidine-1-carboxylic acid ethylamide], for which the negative-log Ki (pKi) under setting [1] was > 6.30.

`CC1CCCCC1NC(=O)c1cccc2c(S(=O)(=O)NC3CCN(C(=O)N(C)C)CC3)cccc12` (racemic) [Compound H-33, (±)-4-[5-(2-Methyl-cyclohexylcarbamoyl)-naphthalene-1-sulfonylamino]-piperidine-1-carboxylic acid dimethylamide]: under setting [1], the pKi is > 6.30.

Take `CCCC(=O)N1CC[C@@H](NS(=O)(=O)c2ccc(NC(=O)c3ccccc3C)c3ccccc23)[C@@H](C)C1` (single isomer, unassigned) [Compound C-140, cis-N-[4-(1-butyryl-3-methyl-piperidin-4-ylsulfamoyl)-naphthalen-1-yl]-2-methyl-benzamiide]: the pKi under setting [1] is > 6.30.

As for `CCOC(=O)N1CC[C@H](NS(=O)(=O)c2ccc(NC(=O)c3ccccc3C)c3c2CCCC3)[C@H](C)C1` (racemic) [Compound E-21, (±)-cis-3-Methyl-4-[4-(2-methyl-benzoylamino)-5,6,7,8-tetrahydro-naphthalene-1-sulfonylamino]-piperidine-1-carboxylic acid ethyl ester], the negative logarithm of the Ki (pKi) under setting [1] is > 6.30.

For the molecule `CCOC(=O)N1CCC(NS(=O)(=O)c2ccc(NC(=O)c3ccccc3C)c3c2CN(CC)CC3)CC1` [Compound J-42, 4-[2-Ethyl-5-(2-methyl-benzoylamno)-1,2,3,4-tetrahydro-isoquinoline-8-sulfonylamino]-piperidine-1-carboxylic acid ethyl ester], the pKi under setting [1] was > 6.30.

On to `CCOC(=O)N1CCC(NS(=O)(=O)c2ccc(CNC(=O)c3ccccc3C)c3ccccc23)CC1` [Compound G-1, 4-{4-[(2-Methyl-benzoylamino)-methyl]-naphthalene-1-sulfonylamino}-piperidine-1-carboxylic acid ethyl ester], for which the negative logarithm of the Ki (pKi) under setting [1] was > 6.30.

As to `Cc1ccccc1C(=O)Nc1ccc(S(=O)(=O)NC2CCN(C(=O)[C@@H]3CCCN3C)CC2)c2ccccc12` [Compound C-124, (S)-2-Methyl-N-{4-[1-(1-methyl-pyrrolidine-2-carbonyl)-piperidin-4-ylsulfamoyl]-naphthalen-1-yl}-benzamide], the pKi under setting [1] was > 6.30.

Take `CC(=O)N1CC[C@H](NS(=O)(=O)c2ccc(NC(=O)c3ccccc3C)c3ccccc23)[C@H](C)C1` (racemic) [Compound C-30, (±)-cis-N-[4-(1-Acetl-3-methyl-piperidin-4-ylsulfamoyl)-naphthalen-1-yl]-2-methyl-benzamide]: the negative-log Ki (pKi) under setting [1] is > 6.30.

As to `CN(C)C(=O)N1CCC(NS(=O)(=O)c2ccc(C(=O)Nc3ccccc3Cl)c3ccccc23)CC1` [Compound F-23, 4-[4-(2-Chloro-phenylcarbamoyl)-naphthalene-1-sulfonylamino]-piperidine-1-carboxylic acid dimethylamide], under setting [1], the pKi is > 6.30.

In the case of `CCN1CCC(NS(=O)(=O)c2cccc3c(NC(=O)c4ccccc4C)cccc23)CC1` [Compound H-14, N-[5-(1-Ethyl-piperidin-4-ylsulfamoyl)-naphthalen-1-yl]-2-methyl-benzamide], under setting [1], the pKi is > 6.30.

`Cc1ccccc1C(=O)Nc1ccc(S(=O)(=O)N[C@H]2CCNC[C@H]2C)c2ccccc12` (racemic) [Compound C-28, (±)-cis-2-Methyl-N-[4-(3-methyl-piperidin-4-ylsulfamoyl)-naphthalen-1-yl]-benzamide]: the pKi under setting [1] is > 6.00.

For the molecule `CC[C@@H]1CNCC[C@@H]1NS(=O)(=O)c1ccc(NC(=O)c2ccccc2C)c2ccccc12` [Compound J-45], under setting [1], the pKi is > 6.30.

On to `CCNC(=O)N1CCC(NS(=O)(=O)c2ccc(NC(=O)c3ccccc3C)c3ccccc23)C(C)(C)C1` (racemic) [Compound C-21, (±)-3,3-Dimethyl-4-[4-(2-methyl-benzoylamino)-naphthalene-1-sulfonylamino]-piperidine-1-carboxylic acid ethylamide], for which the negative logarithm of the Ki (pKi) under setting [1] was > 6.30.

As for `CCNC(=O)N1CC[C@H](NS(=O)(=O)c2ccc(NC(=O)c3ccccc3C)c3ccccc23)[C@@H](C)C1` (racemic) [Compound C-16, (±)-trans-3-Methyl-4-[4-(2-methyl-benzoylanlino)-naphthalene-1-sulfonylamino]-piperidine-1-carboxylic acid ethylaiide], the pKi under setting [1] is > 6.30.

Consider `CCOC(=O)N1CC[C@@H](NS(=O)(=O)c2ccc(NC(=O)c3ccccc3C)c3ccccc23)[C@@H](C)C1` (single isomer, unassigned) [Compound C-138, cis-3-Methyl-4-[4-(2-methyl-benzoylamino)-naphthalene-1-sulfonylamino]-piperidine-1-carboxylic acid ethyl ester], for which the negative logarithm of the Ki (pKi) under setting [1] is > 6.00.

As for `CCOC(=O)N1CC[C@H](NS(=O)(=O)c2cccc3c(C(=O)Nc4ccccc4C)cccc23)[C@@H](C)C1` (racemic) [Compound H-40, (±)-trans-3-Methyl-4-(5-o-tolylcarbamoyl-naphthalene-1-sulfonylamino)-piperidine-1-carboxylic acid ethyl ester], under setting [1], the pKi was > 6.30.

In the case of `COc1ccc(NS(=O)(=O)c2ccc(NC(=O)c3ccccc3OC)c3ccccc23)cc1` [Compound B-6, 2-Methoxy-N-[4-(4-methoxy-phenylsulfamoyl)-naphthalen-1-yl]-benzamide], the pKi under setting [1] was > 4.52.

Turning to `Cc1ccccc1C(=O)Nc1ccc(S(=O)(=O)NC2CCN(C(=O)CN3CCCCC3)CC2)c2ccccc12` [Compound C-148, 2-Methyl-N-{4-[1-(2-piperidin-1-yl-acetyl)-piperidin-4-ylsulfamoyl]-naphthalen-1-yl}-benzamide], the negative logarithm of the Ki (pKi) under setting [1] is > 4.52.

Consider `Cc1ccccc1C(=O)Nc1ccc(S(=O)(=O)N[C@@H]2[C@H](C)CNC[C@@H]2C)c2ccccc12` [Compound J-53], for which, under setting [1], the negative-log Ki (pKi) was > 5.30.

For the molecule `Cc1ccccc1C(=O)Nc1ccc(S(=O)(=O)NC2CCN(C(=O)OC(C)(C)C)CC2(C)C)c2ccccc12` (racemic) [Compound A-19, (±)-3,3-Dimethyl-4-[4-(2-methyl-benzoylamino)-naphthalene-0-sulfonylamino]-piperidine-1-carboxylic acid tert-butyl ester], the pKi under setting [1] was > 6.30.

On to `CCOC(=O)N1CCC(NS(=O)(=O)c2cccc3c(C(=O)NC4CCCCC4)cccc23)CC1` [Compound H-25, 4-(5-Cyclohexylcarbamoyl-naphthalene-1-suffonylamino)-piperidine-1-carboxylic acid ethyl ester], for which, under setting [1], the pKi is > 6.00.

Regarding `Cc1ccccc1C(=O)Nc1ccc(S(=O)(=O)NC2CCN(c3nc4ccccc4o3)CC2)c2ccccc12` [Compound C-60, N-[4-(1-Benzooxazol-2-yl-piperidin-4-ylsulfamoyl)-naphthalen-1-yl]-2-methyl-benzamide], the pKi under setting [1] is > 6.30.

On to `COc1ccc(NS(=O)(=O)c2ccc(N(C)C(=O)c3ccccc3)c3ccccc23)cc1` [Compound B-33, N-[4-(4-Methoxy-phenylsulfamoyl)-naphthalen-1-yl]-N-methyl-benzamide], for which the pKi under setting [2] is > 4.52.
